Here are results for two molecules from patent publication US20110033418A1, “TREATMENT OF DISEASES CAUSED BY VIRAL INFECTION” (priority 2009, published 2011).

In test [1] the test system is Ljungan virus (LV). The conditions noted are these: number of 7 mice; 200 mg per kg orally daily for 50 days from day 35; terminated at day 120.
Protocol: An ALS mouse model was used in which the mice are transgenic for superoxide dismutase 1 (SOD1). […] The inventors treated the LV infection in these mice using two different antiviral compounds separately and in combination. One group of mice was kept as a control.
Groups of seven 35 day old B6SJL-Tg-SOD1-G93 mice were treated with two antiviral compounds, Pleconaril and Ribavirin (200 mg of each per kg body weight), orally with a tube connected to a syringe daily for 50 consecutive days. Mice were observed every day for signs of paralysis.
The experiment was terminated at day 120 when all untreated animals were expected to have developed severe paralysis and death.
The test system of test [2] is Ljungan virus (LV). As to the kind of experiment: Diabetes in male CD-1 mice infected with LV in utero and subjected to stress (glucose tolerance test, abdominal fat, serum insulin). In kind it is in vivo. As to the method:
Animals CD-1 (ICR) mice were obtained from Br Charles River laboratories, Germany. Glucose tolerance test was performed to diagnose diabetes. In this test 2 g glucose per kg body weight was injected intraperitoneally (as 100 mg glucose/ml solution). Blood glucose was measured (Medisence Precision PCx Abbott Laboratories) before the injection of glucose and after 60 and 120 min. Diabetes was defined as a blood glucose level above 200 mg/dL at 120 min. Abdominal fat in male mice was measured by dissecting out the bilateral scrotal fat cushion. The total weight of both fat cushions was used.
Analysis of insulin Serum insulin was measured using a rat insulin ELISA kit (Mercodia AB).
Transmission of LV to CD-1 mice followed by antiviral treatments Pregnant outbred CD1 mice were infected intraperitoneally with 1000 ID50 (determined by intra cerebral titration in suckling mice) units of LV145 SL two days after conception. Control animals were given an injection of saline. All female mice were kept in individual cages and followed for the development of gestational diabetes, pregnancy outcome and development of diabetes in the offspring. In all the pregnant mice mild stress was induced by adding glucose (100 g/L) to drinking water, performing weekly weights and a glucose tolerance test at the end of the pregnancy. At five weeks of age antiviral therapy to the male offsprings, using LV-specific murine antiserum or the oral antiviral compound Pleconaril (200 mg per kg body weight) or a combination of both, were given once a day for four consecutive days. The control groups of infected and uninfected male offsprings were untreated. From the age of 25 days all mice were subjected to stress by placing 4-5 male mice from different litters in the same cage. At 15 weeks of age the animals were subjected to a glucose tolerance test. Serum insulin levels and abdominal fat were measured.
Statistics The glucose tolerance test in the CD-1 mice was evaluated by Fisher's exact one sided test. Otherwise statistical significance in the CD-1 mice was evaluated by Student's t-test. P values <0.05 were considered significant. Data are presented as means±s.e.m.

Test [3] deals with LV. The experiment in a line: Inhibitory effect on LV in tissue culture. The class given is cell-based. From the text: Antiviral agents Pleconaril (VP-63843) a novel, orally bio-available, broad spectrum anti-picorna-viral agent developed as a therapeutic tool in entero- and rhino viral infections, was used alone or in combination with specific antiserum for intervention.

With `NC(=O)c1ncn([C@@H]2O[C@H](CO)[C@@H](O)[C@H]2O)n1` [Ribavirin, 1-[(2R,3R,4S,5R)-3,4-dihydroxy-5-(hydroxymethyl)oxolan-2-yl]-1H-1,2,4-triazole-3-carboxamide], in test [1], the “Mice with paralysis (including death)” value came out at 6 and the Mice without paralysis is reported as 1.
Consider `Cc1cc(CCCOc2c(C)cc(-c3noc(C(F)(F)F)n3)cc2C)on1` [Pleconaril, (3-[3,5-dimethyl-4-[[3-(3-methyl-5-isoxazolyl)propyl]oxy]phenyl]-5-(trifluoromethyl)-1,2,4-oxadiazole)], for which the “No. with blood glucose >200 mg/dL at 120 min (percent of group)” value in test [2] (glucose tolerance test at 15 weeks of age, LV infected, stressed male CD-1 mice) was 9%. The “Blood glucose at 60 min” value in test [2] (glucose tolerance test, 2 g glucose per kg i.p., means±s.e.m.) was 211 ± 23.8 mg/dL. Moreover, the “No. with blood glucose >200 mg/dL at 120 min” value in test [2] (number of mice, glucose tolerance test at 15 weeks of age, LV infected, stressed male CD-1 mice, treatment once a day for four days at five weeks of age) came to 1. For the same molecule, the Serum insulin in test [2] (rat insulin ELISA, means±s.e.m.) came out at 4.15 ± 1.52 µg/L. In addition, the Abdominal fat in test [2] (total weight of bilateral scrotal fat cushions, means±s.e.m.) is on record as 2.1 ± 0.31 g. Also, the “inhibitory effect on LV” value in test [3] is on record as “some inhibitory effect on LV”. In addition, in test [1], the “Mice with paralysis (including death)” value stood at 5 and the Mice without paralysis turned out to be 2.
